Measurements reported in patent US8871789B2, “Method of preventing or treating viral infection” (The United States of America, as represented by the …, priority 2010, dated 2014).

How the values were obtained:
HSV-1 [1] = assay: HSV-1 IE mRNA levels in infected HFF cells; format: cell-based
Method: FIG. 13 is a line graph showing viral IE (ICP4, ICP27, and ICP22) and control (S15, Sp1, and TBP) mRNA levels in HFF cells treated with DMSO or the indicated concentrations of ML324 for 3 hours and infected with HSV-1 (0.1 PFU per cell) for 3 hours. *P<0.0001, two-way ANOVA with Tukey's post hoc test. Data are means±SEM.
HSV-1 IE mRNA levels of ICP4 and ICP27 decrease in cells infected in the presence of DMOG. Human foreskin fibroblast (HFF) cells were infected with HSV-1 at 0.1 PFU/cell for 3 hrs in the presence of increasing concentrations of DMOG. Cells were harvested and the levels of viral IE (ICP4, ICP27) and cell control (s15) mRNAs were assessed by qRT-PCR.
All experiments were performed as described in Liang et al., Sci. Transl. Med. 5, 167ra5 (2013). N-(3-(dimethylamino)propyl)-4-(8-hydroxyquinolin-6-yl)benzamide (designated ML324) has the following characteristics: N-(3-(dimethylamino)propyl)-4-(8-hydroxyquinolin-6-yl)benzamide (1). LC-MS: rt (min)=3.033; ^1H NMR (400 MHz, DMSO-d6) δ 1.84-1.98 (m, 2H), 2.79 (s, 3H), 2.80 (s, 3H), 3.12 (ddd, J=10.2 Hz, 5.4 Hz and 5.2 Hz, 2H), 3.37 (q, 2H), 7.50 (s, 1H), 7.66 (dd, J=8.2 Hz and 4.3 Hz, 1H), 7.84 (s, 1H), 7.88-7.94 (m, 2H), 7.96-8.02 (m, 2H), 8.50 (d, J=8.2 Hz, 1H), 8.71 (t, J=5.6 Hz, 1H), 8.90 (d, J=4.1 Hz, 1H), 9.34 (brs, 1H); HRMS (ESI) m/z (M+H)^+ C21H24N3O2, 350.1867. found 350.1863.

HSV-1 [2] = format: cell-based, mouse
Method: FIG. 20 is a dot plot showing latently infected trigeminal ganglia that were explanted in the presence of DMSO, 100 mM ACV, or 50 mM ML324 for 48 hours. The total number of UL29+ neurons per ganglia is graphed, representing the number of neurons undergoing viral reactivation. Data are means±SEM.

HSV-1 [3] = assay: MRC-5 cells infected with HSV-1 at high MOI (IE mRNA, viral yields); format: cell-based
Method: FIG. 15 is a bar graph showing MRC-5 cells treated with DMSO or 50 mM ML324 that were infected with HSV-1 at the indicated multiplicity of infection (MOI). Viral IE and cellular mRNA levels were quantitated at 2 hours after infection. *P<0.0001, two-way ANOVA with Tukey's post hoc test. Data are means±SEM.
FIG. 16 is a bar graph showing MRC-5 cells treated with DMSO or 50 mM ML324 that were infected with HSV-1 at the indicated MOI. Viral yields were determined at 24 hours after infection. *P<0.0001, two-way ANOVA with Tukey's post hoc test. Data are means±SEM.

HSV-1 [4] = format: cell-based, Balb/c mice; design: reduction of viral reactivation (viral yield): unit of the concentration uncertain
Method: FIG. 18 is a dot plot showing latently infected ganglia that were explanted in the presence of DMSO, ACV (100 mM), or ML324 (50 mM) for 48 hrs. Viral yields were determined from one half of each ganglia at 48 hrs (DMSO, ACV, ML324) and from the other half of each ganglia after drug reversal for an additional 72 hrs (ACV-R, ML324-R) [Wilcoxon matched pairs signed rank test, ACV vs ACV-R n=8, ML324 vs ML324-R n=10]. Data are means±SEM.
FIG. 19 is a dot plot showing viral yields from HSV-1 latently infected trigeminal ganglia that were explanted in the presence of DMSO, or 2 mM DMOG or 50 mM ML324 for 48 hours (DMSO versus DMOG: P=0.0015, Wilcoxon matched-pairs signed rank test; n=12; DMSO versus ML324: P<0.0001; n=20). Data are means±SEM.
Viral yields decrease from HSV-1 latently infected ganglia explanted in the presence of LSD1 or JMJD2 inhibitors (FIG. 11). Balb/c mice were infected with 5×10^6 PFU HSV-1 (strain F) per eye after corneal scarification. Latently infected mice were sacrificed 45 days post clearance of the primary infection and trigeminal ganglia were rapidly explanted into culture in the presence of 2 mM DMOG, 2 mM TCP, or control (DMSO or ACV, acyclovir) for 48 hours. Post explant incubation, the ganglia were homogenized and briefly sonicated. The reactivated viral yield of each ganglia was determined by titering the clarified supernatant on Vero cells. Statistical comparisons were made using Wilcoxon signed rank test (paired ganglia) with a statistical significance of <0.05. Each data point was the result of a single ganglia divided and treated in the presence and absence of DMSO and DMOG or DMSO and TCP. Therefore, a Wilcoxon signed rank test was used to assess differences between each treated and untreated sample. The significant difference between DMSO control and DMOG was p=0.0018. This test used an exact p-value for small sample sizes with an a level of 0.05. n=20. Analyses were made using Prism (V5.0a) and are expressed as the mean+/−s.e.m.

JMJD2E = biological target: T1, JMJD2E (Homo sapiens, UniProt B2RXH2); assay: AlphaLISA assay, JMJD2E histone demethylase inhibition; format: biochemical; conditions: Table 2; JMJD2E; AlphaLISA, in triplicate; read-out: IC50
T1 sequence (B2RXH2 1-506): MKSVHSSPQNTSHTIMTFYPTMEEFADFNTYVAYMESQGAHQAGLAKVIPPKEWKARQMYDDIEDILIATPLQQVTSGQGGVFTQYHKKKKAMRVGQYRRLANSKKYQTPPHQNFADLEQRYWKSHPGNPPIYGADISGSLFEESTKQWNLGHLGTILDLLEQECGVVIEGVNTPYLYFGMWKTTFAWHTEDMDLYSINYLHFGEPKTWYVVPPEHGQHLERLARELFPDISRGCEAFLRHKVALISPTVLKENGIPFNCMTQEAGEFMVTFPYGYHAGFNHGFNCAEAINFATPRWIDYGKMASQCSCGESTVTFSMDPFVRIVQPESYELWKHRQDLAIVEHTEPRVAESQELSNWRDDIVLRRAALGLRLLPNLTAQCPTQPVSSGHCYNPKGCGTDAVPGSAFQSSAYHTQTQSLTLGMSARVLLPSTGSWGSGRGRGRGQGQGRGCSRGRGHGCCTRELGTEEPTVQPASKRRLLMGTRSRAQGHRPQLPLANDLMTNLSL

[5] = 100 mM ACV or 50 mM ML324, 48 hours

CN(C)CCCNC(=O)c1ccc(-c2cc(O)c3ncccc3c2)cc1 [Compound 4, N-(3-(dimethylamino)propyl)-4-(8-hydroxyquinolin-6-yl)benzamide]
IC50 (HSV-1 [1]; Human alphaherpesvirus 1, HFF, 3 h, read-out: IC50 for reducing IE gene expression): ~10 µM
efficiency relative to DMOG in reducing IE gene expression (HSV-1 [1]; ML324 versus DMOG): ~75 fold
primary viral reactivation events (HSV-1 [2]; 50 mM ML324, 48 hours, FIG. 20): suppressed
UL29+ cell clusters (HSV-1 [2]; [5]): 2 clusters in 48 ganglia sections
isolated UL29+ neurons relative to DMSO (HSV-1 [2]; [5]): most significant reduction
viral IE gene transcription at high multiplicity of infection (HSV-1 [3]; 50 mM ML324, 2 hours after infection, FIG. 15): blocked
viral yields at high multiplicity of infection (HSV-1 [3]; 50 mM ML324, 24 hours after infection, FIG. 16): reduced
reduction of viral reactivation (viral yield) (HSV-1 [4]; 50 (unit uncertain), 48 hours explant, FIG. 19): 4.5 log
viral replication in ganglia after drug withdrawal (HSV-1 [4]; after ML324 withdrawal, additional 72 hrs, FIG. 18): robust viral replication
IC50 (JMJD2E): 0.92 µM
